# Values of other authors, collected in patent US10813929B2, “Treating cancer with ATR inhibitors” (VERTEX PHARMACEUTICALS INCORPORATED, priority 2011, dated 2020).
# Tested on: pancreatic cancer
# Conditions: treatment with gemcitabine, increased from 10%; cited from earlier work
smiles,measurement,value
Nc1ccn([C@@H]2O[C@H](CO)[C@@H](O)C2(F)F)c(=O)n1 [gemcitabine],5-year survival,20%
